Experiments:
Assay in all cases: IC25 growth inhibition; higher = less potent
Bacteroides fragilis NT = tested on: Bacteroides fragilis NT
Procedure, shortened: (§1)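 Under anaerobic conditions, OD578 was read hourly in a plate reader for at least three biological replicates of monocultures grown overnight in mGAM. Each culture started at an OD578 of 0.01 in pre-reduced plates holding twofold drug dilutions and 1% DMSO (or water). IC25 was reported as a tested interval: the lowest concentration where the monotonic median area under the growth curve dropped below the cutoff. That cutoff was 0.75.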

[1] = tested on: Bacteroides thetaiotaomicron
Procedure, shortened: as §1

Bacteroides uniformis = tested on: Bacteroides uniformis
Procedure, shortened: as §1

Bacteroides vulgatus = tested on: Bacteroides vulgatus
Procedure, shortened: as §1

Clostridium bolteae = tested on: Clostridium bolteae
Procedure, shortened: as §1

Clostridium perfringens = tested on: Clostridium perfringens
Procedure, shortened: as §1

Clostridium ramosum = tested on: Clostridium ramosum
Procedure, shortened: as §1

[2] = tested on: Clostridium saccharolyticum
Procedure, shortened: as §1

Collinsella aerofaciens = tested on: Collinsella aerofaciens
Procedure, shortened: as §1

Coprococcus comes = tested on: Coprococcus comes
Procedure, shortened: as §1

Dorea formicigenerans = tested on: Dorea formicigenerans
Procedure, shortened: as §1

Escherichia coli ED1a = tested on: Escherichia coli ED1a
Procedure, shortened: as §1

Eubacterium rectale = tested on: Eubacterium rectale
Procedure, shortened: as §1

[3] = tested on: Fusobacterium nucleatum subsp. Nucleatum
Procedure, shortened: as §1

Parabacteroides merdae = tested on: Parabacteroides merdae
Procedure, shortened: as §1

Roseburia intestinalis = tested on: Roseburia intestinalis
Procedure, shortened: as §1

Ruminococcus gnavus = tested on: Ruminococcus gnavus
Procedure, shortened: as §1

[4] = tested on: Salmonella enterica typhimurium
Procedure, shortened: as §1

Shigella flexneri = tested on: Shigella flexneri
Procedure, shortened: as §1

[5] = tested on: Streptococcus parasanguinis
Procedure, shortened: as §1

Streptococcus salivarius = tested on: Streptococcus salivarius
Procedure, shortened: as §1

Vibrio cholerae = tested on: Vibrio cholerae
Procedure, shortened: as §1

[6] = tested on: Yersinia enterocolitica WA-314
Procedure, shortened: as §1

[7] = tested on: Yersinia pseudotuberculosis
Procedure, shortened: as §1
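Further: lowest concentration where monotonic median growth AUC falls below 0.75 of drug-free control.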

Structure (SMILES) | IC25 growth inhibition (Bacteroides fragilis NT) | IC25 growth inhibition [1] | IC25 growth inhibition (Bacteroides uniformis) | IC25 growth inhibition (Bacteroides vulgatus) | IC25 growth inhibition (Clostridium bolteae) | IC25 growth inhibition (Clostridium perfringens) | IC25 growth inhibition (Clostridium ramosum) | IC25 growth inhibition [2] | IC25 growth inhibition (Collinsella aerofaciens) | IC25 growth inhibition (Coprococcus comes) | IC25 growth inhibition (Dorea formicigenerans) | IC25 growth inhibition (Escherichia coli ED1a) | IC25 growth inhibition (Eubacterium rectale) | IC25 growth inhibition [3] | IC25 growth inhibition (Parabacteroides merdae) | IC25 growth inhibition (Roseburia intestinalis) | IC25 growth inhibition (Ruminococcus gnavus) | IC25 growth inhibition [4] | IC25 growth inhibition (Shigella flexneri) | IC25 growth inhibition [5] | IC25 growth inhibition (Streptococcus salivarius) | IC25 growth inhibition (Vibrio cholerae) | IC25 growth inhibition [6] | IC25 growth inhibition [7]
CN(C)C(=O)C(CCN1CCC(O)(c2ccc(Cl)cc2)CC1)(c1ccccc1)c1ccccc1 [Loperamide] | ≤ 80 µM | ≤ 80 µM | ≤ 80 µM | ≤ 80 µM | > 80 µM | > 80 µM | > 80 µM | > 80 µM | ≤ 80 µM | > 80 µM | ≤ 80 µM | > 160 µM | ≤ 40 µM | > 80 µM | ≤ 80 µM | ≤ 40 µM | ≤ 80 µM | > 80 µM | > 80 µM | > 80 µM | > 80 µM | > 80 µM | > 80 µM | > 80 µM
Cc1c(N(C)CS(=O)(=O)O)c(=O)n(-c2ccccc2)n1C [Metamizol] | > 160 µM | > 160 µM | > 160 µM | > 160 µM | > 160 µM | > 160 µM | > 160 µM | > 160 µM | > 160 µM | > 160 µM | > 160 µM | > 160 µM | > 160 µM | > 160 µM | > 160 µM | > 160 µM | > 160 µM | > 160 µM | > 160 µM | > 160 µM | > 160 µM | > 160 µM | > 160 µM | > 160 µM
CC(C)(O)c1ccccc1CC[C@@H](SCC1(CC(=O)O)CC1)c1cccc(/C=C/c2ccc3ccc(Cl)cc3n2)c1 [Montelukast] | > 40 µM | > 80 µM | > 80 µM | > 80 µM | > 40 µM | ≤ 5 µM | > 10 µM | > 10 µM | > 20 µM | > 80 µM | > 80 µM | > 160 µM | ≤ 10 µM | > 80 µM | > 80 µM | ≤ 10 µM | > 80 µM | > 10 µM | > 20 µM | ≤ 10 µM | ≤ 5 µM | > 20 µM | > 10 µM | > 20 µM
CCn1cc(C(=O)O)c(=O)c2ccc(C)nc21 [Nalidixic Acid] | ≤ 160 µM | ≤ 160 µM | ≤ 160 µM | > 160 µM | > 160 µM | ≤ 20 µM | ≤ 160 µM | > 160 µM | > 160 µM | > 160 µM | > 160 µM | ≤ 5 µM | > 160 µM | ≤ 160 µM | ≤ 80 µM | > 160 µM | > 160 µM | ≤ 5 µM | ≤ 2.5 µM | > 160 µM | > 160 µM | < 1.25 µM | > 160 µM | ≤ 2.5 µM
CCn1cc(C(=O)O)c(=O)c2cc(F)c(N3CCNCC3)cc21 [Norfloxacin] | ≤ 80 µM | ≤ 80 µM | ≤ 20 µM | ≤ 80 µM | ≤ 20 µM | ≤ 2.5 µM | ≤ 160 µM | ≤ 40 µM | ≤ 10 µM | ≤ 20 µM | ≤ 10 µM | < 1.25 µM | ≤ 40 µM | ≤ 20 µM | ≤ 40 µM | ≤ 160 µM | ≤ 10 µM | < 1.25 µM | < 1.25 µM | ≤ 20 µM | ≤ 10 µM | < 1.25 µM | ≤ 10 µM | ≤ 10 µM
CO[C@@H]1[C@@H](OC(N)=O)[C@@H](O)[C@H](Oc2ccc3c(O)c(NC(=O)c4ccc(O)c(CC=C(C)C)c4)c(=O)oc3c2C)OC1(C)C [Novobiocin] | ≤ 20 µM | ≤ 20 µM | < 1.25 µM | < 1.25 µM | < 1.25 µM | ≤ 5 µM | ≤ 5 µM | ≤ 10 µM | < 1.25 µM | < 1.25 µM | < 1.25 µM | ≤ 5 µM | ≤ 5 µM | ≤ 5 µM | < 1.25 µM | < 1.25 µM | < 1.25 µM | ≤ 40 µM | ≤ 2.5 µM | < 1.25 µM | < 1.25 µM | < 1.25 µM | ≤ 20 µM | ≤ 20 µM
CN[C@H]1CC[C@@H](c2ccc(Cl)c(Cl)c2)c2ccccc21 [Sertraline] | ≤ 160 µM | ≤ 80 µM | ≤ 160 µM | > 160 µM | ≤ 160 µM | ≤ 80 µM | ≤ 80 µM | ≤ 80 µM | ≤ 80 µM | ≤ 160 µM | ≤ 80 µM | ≤ 160 µM | ≤ 10 µM | ≤ 160 µM | ≤ 80 µM | ≤ 40 µM | ≤ 40 µM | > 160 µM | ≤ 160 µM | ≤ 160 µM | ≤ 80 µM | ≤ 80 µM | ≤ 80 µM | ≤ 160 µM
O=C(O)Cc1cc(I)c(Oc2ccc(O)c(I)c2)c(I)c1 [Tiratricol] | ≤ 80 µM | ≤ 80 µM | ≤ 80 µM | ≤ 40 µM | ≤ 80 µM | ≤ 20 µM | ≤ 20 µM | ≤ 20 µM | ≤ 80 µM | ≤ 20 µM | ≤ 80 µM | > 160 µM | ≤ 160 µM | ≤ 40 µM | ≤ 40 µM | ≤ 40 µM | ≤ 20 µM | > 160 µM | > 160 µM | ≤ 20 µM | ≤ 10 µM | ≤ 80 µM | > 160 µM | > 160 µM
CN[C@H](CC(C)C)C(=O)N[C@H]1C(=O)N[C@@H](CC(N)=O)C(=O)N[C@H]2C(=O)N[C@H]3C(=O)N[C@H](C(=O)N[C@H](C(=O)O)c4cc(O)cc(O)c4-c4cc3ccc4O)[C@H](O)c3ccc(c(Cl)c3)Oc3cc2cc(c3O[C@@H]2O[C@H](CO)[C@@H](O)[C@H](O)[C@H]2O[C@H]2C[C@](C)(N)[C@H](O)[C@H](C)O2)Oc2ccc(cc2Cl)[C@H]1O [Vancomycin] | ≤ 10 µM | ≤ 40 µM | ≤ 20 µM | ≤ 2.5 µM | < 1.25 µM | < 1.25 µM | ≤ 2.5 µM | < 1.25 µM | < 1.25 µM | < 1.25 µM | < 1.25 µM | > 160 µM | < 1.25 µM | ≤ 160 µM | ≤ 10 µM | < 1.25 µM | < 1.25 µM | > 160 µM | > 160 µM | < 1.25 µM | < 1.25 µM | > 160 µM | > 160 µM | > 160 µM
